Reference: ChEMBL document CHEMBL1142597, “Arugosins G and H: prenylated polyketides from the marine-derived fungus Emericellanidulans var. acristata” (J Nat Prod, 2006)
Calls of active or inactive are those of the source. No cut-off for these calls is given here.

How the values were obtained:
Mycotypha microspora = assay: Antifungal activity against Mycotypha microspora at 50 ug/disk by agar diffusion assay; type: functional; conditions: read-out: IZ
[Chlorella] fusca = Antialgal activity against 'Chlorella' fusca at 50 ug/disk by agar diffusion assay; type: functional; conditions: Scenedesmus fuscus; read-out: IZ
PBMC [1] = assay: Stimulation of IL2 production in human PBMC at 0.1 ug/mL after 24 hrs by flow cytometry with cytometric bead array method; type: functional, cell-based
PBMC [2] = assay: Stimulation of IL2 production in human PBMC at 1 ug/mL after 24 hrs by flow cytometry with cytometric bead array method; type: functional, cell-based
PBMC [3] = assay: Stimulation of IL4 production in human PBMC at 0.1 ug/mL after 24 hrs by flow cytometry with cytometric bead array method; type: functional, cell-based
PBMC [4] = assay: Stimulation of IL4 production in human PBMC at 1 ug/mL after 24 hrs by flow cytometry with cytometric bead array method; type: functional, cell-based
PBMC [5] = assay: Stimulation of IL6 production in human PBMC at 0.1 ug/mL after 24 hrs by flow cytometry with cytometric bead array method; type: functional, cell-based
PBMC [6] = assay: Stimulation of IL6 production in human PBMC at 1 ug/mL after 24 hrs by flow cytometry with cytometric bead array method; type: functional, cell-based
PBMC [7] = assay: Stimulation of IL10 production in human PBMC at 0.1 ug/mL after 24 hrs by flow cytometry with cytometric bead array method; type: functional, cell-based
PBMC [8] = assay: Stimulation of IL10 production in human PBMC at 1 ug/mL after 24 hrs by flow cytometry with cytometric bead array method; type: functional, cell-based
PBMC [9] = assay: Stimulation of TNFalpha production in human PBMC at 0.1 ug/mL after 24 hrs by flow cytometry with cytometric bead array method; type: functional, cell-based
PBMC [10] = assay: Stimulation of TNFalpha production in human PBMC at 1 ug/mL after 24 hrs by flow cytometry with cytometric bead array method; type: functional, cell-based
PBMC [11] = assay: Stimulation of IFN-gamma production in human PBMC at 0.1 ug/mL after 24 hrs by flow cytometry with cytometric bead array method; type: functional, cell-based
PBMC [12] = assay: Stimulation of IFN-gamma production in human PBMC at 1 ug/mL after 24 hrs by flow cytometry with cytometric bead array method; type: functional, cell-based
PBMC [13] = assay: Cytotoxicity against human PBMC at 0.1 ug/mL; type: cell-based
PBMC [14] = assay: Cytotoxicity against human PBMC at 1 ug/mL; type: cell-based

Compound | zone of inhibition at 50 µg/disc (Mycotypha microspora) [mm] | zone of inhibition at 50 µg/disc ([Chlorella] fusca) [mm] | Activity (PBMC [1]) | Activity (PBMC [2]) | Activity (PBMC [3]) | Activity (PBMC [4]) | Activity (PBMC [5]) | Activity (PBMC [6]) | Activity (PBMC [7]) | Activity (PBMC [8]) | Activity (PBMC [9]) | Activity (PBMC [10]) | Activity (PBMC [11]) | Activity (PBMC [12]) | Activity (PBMC [13]) | Activity (PBMC [14])
CC(C)=CCc1ccc(O)c(C(=O)c2c(O)cc(C)c(O)c2C=O)c1O [ARUGOSINS H] | 3 | 2 | inactive | inactive | inactive | inactive | inactive | inactive | inactive | inactive | inactive | inactive | inactive | inactive | Non-toxic | Non-toxic
CC(C)=CCOc1c(C)cc(O)c2c1C(O)Oc1c(CC=C(C)C)ccc(O)c1C2=O (centres undefined) [ARUGOSIN B] |  |  | inactive | inactive | inactive | inactive | inactive | inactive | inactive | inactive | inactive | inactive | inactive | inactive | Non-toxic | Non-toxic
C=C(C)[C@H]1COc2c(C)cc3oc4c(CC=C(C)C)ccc(O)c4c(=O)c3c2[C@@H]1O [SHAMIXANTHONE] |  |  | inactive | inactive | inactive | inactive | inactive | inactive | inactive | inactive | inactive | inactive | inactive | inactive | Non-toxic | Non-toxic
O=C1OC(O)C(Cc2ccccc2)=C1c1ccccc1 (centres undefined) [MICROPERFURANONE] |  |  | inactive | inactive | inactive | inactive | inactive | inactive | inactive | inactive | inactive | inactive | inactive | inactive | Non-toxic | Non-toxic
CC(C)=CCOc1c(C)cc2oc3c(CC=C(C)C)ccc(O)c3c(=O)c2c1CO [EMERICELLIN] |  |  | inactive | inactive | inactive | inactive | inactive | inactive | inactive | inactive | inactive | inactive | inactive | inactive | Non-toxic | Non-toxic
C=C1CC[C@@H]2[C@](C)(CC[C@H](O)[C@@]2(C)CCC=C(C)C)[C@@H]1Cc1c[nH]c2ccccc12 [EMINDOLE DA] |  |  | inactive | inactive | inactive | inactive | inactive | inactive | inactive | inactive | inactive | inactive | inactive | inactive | Non-toxic | Non-toxic
CC(C)=CCOc1c(C)cc(O)c2c1C(O)Oc1ccc(CC=C(C)C)c(O)c1C2=O (centres undefined) [ARUGOSIN A] |  |  | inactive | inactive | inactive | inactive | inactive | inactive | inactive | inactive | inactive | inactive | inactive | inactive | Non-toxic | Non-toxic
CC(C)=CCOc1c(C)cc(O)c2c1C(O)Oc1c(CC=C(C)C)cc(CC=C(C)C)c(O)c1C2=O (centres undefined) [ARUGOSINS G] |  |  | inactive | inactive | inactive | inactive | inactive | inactive | inactive | inactive | inactive | inactive | inactive | inactive | Non-toxic | Non-toxic
